In ChEMBL document CHEMBL5528025, “Design, synthesis and biological evaluation of carbamate derivatives incorporating multifunctional carrier scaffolds as pseudo-irreversible cholinesterase inhibitors for the treatment of Alzheimer's disease” (Eur J Med Chem, 2024):
pIC50: −log10 of the molar value. The source made the active and inactive calls. No cut-off for these calls is given here.

How the values were obtained:
Acetylcholinesterase [1] = molecular target: T1, Acetylcholinesterase (Homo sapiens, UniProt P22303)
Description: Inhibition of human erythrocyte AChE incubated for 10 mins

Cholinesterase [2] = molecular target: T2, Cholinesterase (Homo sapiens, UniProt P06276)
Description: Inhibition of human serum BuChE using butyrylthiocholine iodide as substrate incubated for 10 mins followed by substrate addition and measured after 10 mins by DTNB reagent based Ellman's method

BV-2 [3] = assay: Antineuroinflammatory activity in LPS-induced mouse BV-2 cells assessed as increase in IL-4 level at 1.25 to 5 uM incubated for 24 hrs by ELISA; assay type: functional, cell-based; conditions: dose 1.25-5 µM
PC-12 [4] = assay: Inhibition of H2O2 induced ROS production in rat PC-12 cells assessed as reduction in intracellular ROS level at 10 uM pretreated for 1 hr followed by H2O2 stimulation and measured after 24 hrs by confocal microscopic analysis; assay type: functional, cell-based; conditions: time 25.0 hrs
PC-12 [5] = assay: (§1) Neuroprotective activity against H2O2-induced rat PC-12 cells assessed as protection against H2O2-induced apoptosis by measuring live cells at 10 uM pretreated for 1 hr followed by H2O2 addition and measured after 24 hrs by Annexin V-FITC/PI staining based flow cytometry analysis (reference value: 63.2%); assay type: functional; conditions: time 25 hrs
BV-2 [6] = assay: Cytotoxicity against mouse BV-2 cells assessed as reduction in cell viability at 5 uM incubated for 24 hrs by CCK-8 assay; assay type: toxicity, cell-based; conditions: bv-2, 24 h
PC-12 [7] = assay: as §1, with “late apoptotic” for “live”, “7.97%)” for “63.2%)”; assay type: functional; conditions: time 25 hrs
[8] = Cytotoxicity against rat PC-12 cells assessed as cell viability at 10 uM incubated for 24 hrs by CCK-8 assay relative to control; assay type: toxicity, cell-based; conditions: read-out: Activity
Cholinesterase [9] = molecular target: T2, Cholinesterase; assay: Pseudo-irreversible inhibition of human serum BuChE using butyrylthiocholine iodide as substrate at 4 times IC50 preincubated for 20 mins followed by dialysis and measured after 12 hrs by DTNB reagent based Ellman's method
Acetylcholinesterase [10] = molecular target: T1, Acetylcholinesterase; assay: Pseudo-irreversible inhibition of human erythrocyte AChE at 4 times IC50 preincubated for 20 mins followed by dialysis and measured after 12 hrs; assay type: cell-based

T2 sequence (P06276 whole entry): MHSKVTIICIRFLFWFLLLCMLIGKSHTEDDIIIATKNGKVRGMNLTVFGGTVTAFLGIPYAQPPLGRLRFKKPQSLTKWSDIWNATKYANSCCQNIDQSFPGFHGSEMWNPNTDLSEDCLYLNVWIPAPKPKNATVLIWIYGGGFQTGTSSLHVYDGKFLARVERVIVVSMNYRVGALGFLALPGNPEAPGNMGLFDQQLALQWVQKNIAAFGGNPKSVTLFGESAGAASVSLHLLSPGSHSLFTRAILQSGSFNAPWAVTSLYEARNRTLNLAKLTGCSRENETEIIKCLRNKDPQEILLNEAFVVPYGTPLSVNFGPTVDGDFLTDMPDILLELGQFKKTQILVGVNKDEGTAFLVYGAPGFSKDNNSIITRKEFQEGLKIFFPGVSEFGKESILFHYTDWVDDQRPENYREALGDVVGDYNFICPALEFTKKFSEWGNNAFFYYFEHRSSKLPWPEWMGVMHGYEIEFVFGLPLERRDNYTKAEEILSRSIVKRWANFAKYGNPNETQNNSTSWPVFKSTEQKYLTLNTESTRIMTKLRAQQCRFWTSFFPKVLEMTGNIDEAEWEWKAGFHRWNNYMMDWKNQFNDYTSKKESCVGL
T1 sequence (P22303 whole entry): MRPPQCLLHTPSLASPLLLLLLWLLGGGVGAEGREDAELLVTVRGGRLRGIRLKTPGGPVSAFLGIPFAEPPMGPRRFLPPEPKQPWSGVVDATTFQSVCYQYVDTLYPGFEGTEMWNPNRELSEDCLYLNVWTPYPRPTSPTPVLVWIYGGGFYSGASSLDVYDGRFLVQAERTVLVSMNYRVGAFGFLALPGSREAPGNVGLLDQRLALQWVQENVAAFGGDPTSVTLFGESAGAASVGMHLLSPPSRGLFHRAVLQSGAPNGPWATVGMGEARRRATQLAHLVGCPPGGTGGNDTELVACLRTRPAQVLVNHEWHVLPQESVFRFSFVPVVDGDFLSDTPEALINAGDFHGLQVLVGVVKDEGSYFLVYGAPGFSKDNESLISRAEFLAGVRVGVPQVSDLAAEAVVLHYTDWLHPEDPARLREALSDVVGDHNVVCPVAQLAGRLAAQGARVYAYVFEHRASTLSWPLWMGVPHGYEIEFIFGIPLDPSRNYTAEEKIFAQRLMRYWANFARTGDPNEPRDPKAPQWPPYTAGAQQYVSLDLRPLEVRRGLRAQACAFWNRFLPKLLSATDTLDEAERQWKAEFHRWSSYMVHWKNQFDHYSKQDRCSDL

Structure (SMILES) | pIC50 (Acetylcholinesterase [1]) | pIC50 (Cholinesterase [2]) | other results
O=C(NCCCCCCNc1c2c(nc3cc(Br)ccc13)CCCC2)Oc1ccc(-c2cc3cccnc3[nH]2)cc1 | 7.26 | 6.26 | 
O=C(NCCCCNc1c2c(nc3ccccc13)CCCC2)Oc1ccc2cc[nH]c2c1 | 6.29 | 8.87 | 
O=C(NCCNc1c2c(nc3ccccc13)CCCC2)Oc1ccc2cc[nH]c2c1 | 5.90 | 9.43 | 
O=C(NCCCCCNc1c2c(nc3ccccc13)CCCC2)Oc1ccc2cc[nH]c2c1 | 6.38 | 7.63 | 
O=C(NCCCCCCNc1c2c(nc3ccccc13)CCCC2)Oc1ccc(-c2cc3cccnc3[nH]2)cc1 | 7.67 | 7.74 | 
O=C(NCCCCNc1c2c(nc3ccccc13)CCCC2)Oc1ccc(-c2cc3cccnc3[nH]2)cc1 | 6.69 | 7.69 | Activity (BV-2 [3]): Active; inhibition (PC-12 [4]): Active; Activity (PC-12 [5]): 77.2%; Activity (BV-2 [6]): Non-Toxic; Activity (PC-12 [7]): 2.92%; viability at 24 h, 10 µM [8]: > 90%
Oc1ccc(/C=C/c2cc(O)cc(O)c2)cc1 [RESVERATROL] |  |  | Activity (PC-12 [5]): 87.3%; Activity (PC-12 [7]): 1.4%
O=C(NCCCCCNc1c2c(nc3ccccc13)CCCC2)Oc1ccc(-c2cc3cccnc3[nH]2)cc1 | 6.82 | 7.67 | 
CCN(C)C(=O)Oc1cccc([C@H](C)N(C)C)c1 |  |  | inhibition (Cholinesterase [9]): Active; inhibition (Acetylcholinesterase [10]): Active
